Counter-ions that a name gives are not always drawn. A value given as a limit tells only on which side of the number the result lay.

Experiment [1] concerns Colon cancer cells DLD-1. As to the kind of experiment: Assay 3: anticancer activity against cultured colon cancer cells (MTT assay). In kind it is cell-based. The conditions noted are these: Homo sapiens, DLD-1, 48 hour cultivation. Here is the method: An assay on anticancer activity against cultured colon cancer cells was carried out in the following manner.
(§1) Colon cancer cells DLD-1 were maintained and subcultured in RPMI 1640 medium (containing 10% calf serum). Each of the test compounds (SRAG1 to SRAG3 shown in Table 1) was suspended and diluted in the medium, and then the cancer cells were cultivated together with the medium in a 96-well plate at 3×10^3 cells/well. After 48 hour cultivation, the MTT assay (Mosmann, T: Journal of Immunological Method, 65, 55-63 (1983)) was carried out to compare survival rates.

The subject of experiment [2] is gastric cancer cells NUGC-3. As to the kind of experiment: Assay 4: anticancer activity against cultured gastric cancer cells (MTT assay). Type of experiment: cell-based. To be noted: Homo sapiens, NUGC-3, 48 hour cultivation. Here is the method: as §1
An assay on anticancer activity against cultured gastric cancer cells was carried out in the same manner as in the assay 3 except that gastric cancer cells NUGC-3 were used instead of the colon cancer cells DLD-1.

For experiment [3], the target named is T1, DNA polymerase α (Bos taurus, UniProt A0AAA9TD94).
T1 construct: from tissue; host or cells: bovine thymus
T1 sequence (A0AAA9TD94 1-1441): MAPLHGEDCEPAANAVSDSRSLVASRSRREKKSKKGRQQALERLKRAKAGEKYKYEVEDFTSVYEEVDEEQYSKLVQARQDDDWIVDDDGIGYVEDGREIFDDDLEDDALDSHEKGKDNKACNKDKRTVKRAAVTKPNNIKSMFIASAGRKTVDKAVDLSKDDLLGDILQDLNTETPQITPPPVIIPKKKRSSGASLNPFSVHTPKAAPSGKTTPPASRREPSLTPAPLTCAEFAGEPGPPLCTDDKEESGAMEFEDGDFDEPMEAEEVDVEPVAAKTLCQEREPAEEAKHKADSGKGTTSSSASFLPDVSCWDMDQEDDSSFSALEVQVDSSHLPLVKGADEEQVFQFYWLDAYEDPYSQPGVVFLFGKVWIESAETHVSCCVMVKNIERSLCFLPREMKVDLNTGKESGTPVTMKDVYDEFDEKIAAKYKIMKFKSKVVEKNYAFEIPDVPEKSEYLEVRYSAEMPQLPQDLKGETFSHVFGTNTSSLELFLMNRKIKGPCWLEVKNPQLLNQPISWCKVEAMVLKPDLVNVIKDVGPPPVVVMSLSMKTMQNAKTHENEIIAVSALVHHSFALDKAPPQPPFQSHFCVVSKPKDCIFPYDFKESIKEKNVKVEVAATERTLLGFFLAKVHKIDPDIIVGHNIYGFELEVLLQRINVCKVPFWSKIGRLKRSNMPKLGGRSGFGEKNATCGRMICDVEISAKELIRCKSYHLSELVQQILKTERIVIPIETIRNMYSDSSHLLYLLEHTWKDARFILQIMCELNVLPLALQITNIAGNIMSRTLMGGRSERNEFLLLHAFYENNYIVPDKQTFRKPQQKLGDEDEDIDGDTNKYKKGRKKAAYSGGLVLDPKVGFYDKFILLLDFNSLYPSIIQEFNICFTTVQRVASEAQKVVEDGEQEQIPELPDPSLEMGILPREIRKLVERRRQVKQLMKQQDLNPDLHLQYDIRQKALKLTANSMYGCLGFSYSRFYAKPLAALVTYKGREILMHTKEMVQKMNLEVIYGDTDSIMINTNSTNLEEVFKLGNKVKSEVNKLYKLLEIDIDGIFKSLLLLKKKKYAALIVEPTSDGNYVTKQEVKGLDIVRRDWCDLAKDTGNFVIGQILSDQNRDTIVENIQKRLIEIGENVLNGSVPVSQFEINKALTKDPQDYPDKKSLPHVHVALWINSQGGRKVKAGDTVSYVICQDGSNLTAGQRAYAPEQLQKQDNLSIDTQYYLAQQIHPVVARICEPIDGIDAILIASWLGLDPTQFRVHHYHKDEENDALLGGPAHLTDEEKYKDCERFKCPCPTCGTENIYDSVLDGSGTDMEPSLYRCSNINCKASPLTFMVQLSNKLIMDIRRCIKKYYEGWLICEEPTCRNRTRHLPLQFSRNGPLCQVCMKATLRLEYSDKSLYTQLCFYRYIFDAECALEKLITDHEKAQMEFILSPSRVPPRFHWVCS
As to the kind of experiment: Assay 1: inhibitory effect against DNA polymerase α ([3H]-dTTP incorporation). In kind it is biochemical. The conditions noted are these: DNA polymerase α from bovine thymus, 0.05 U, 37° C., 60 minutes. Here is the method:
An assay on inhibitory effect against a DNA polymerase α was carried out in the following manner.
(§2) Each mixture was added with a buffer containing inorganic salts for the enzymatic reaction, [^3H]-labeled dTTP and compounds for reaction containing a template DNA strand, and incubated at 37° C. for 60 minutes.
(§3) After the enzymatic reaction was quenched, the resultant reaction product was fixed on a dedicated filter and subjected to measurement by a liquid scintillation counter. The amount of enzymatically incorporated dTTP was calculated as a radiation dose (cpm) of [^3H]. Note that, each of the sulforhamnosylacylglycerol derivatives is a mixture of the S- and R-configurations with respect to an absolute configuration of the carbon of the 2-position of the glycerol moiety.

In experiment [4] the target is T2, DNA polymerase β (Rattus norvegicus, UniProt P06766).
T2 construct: made in house; host or cells: E. coli
As to the kind of experiment: Assay 2: inhibitory effect against DNA polymerase β ([3H]-dTTP incorporation). In kind it is biochemical. To be noted: for inhibitory effect against the DNA polymerase β (in words): at the tested concentrations, summary of Table 2; for IC50: recombinant rat DNA polymerase β, 0.05 U, 37° C., 60 minutes. Here is the method: as §2, §3
An assay on inhibitory effect against a DNA polymerase β was carried out in the following manner.
The same procedure as in Assay 1 was carried out except that 0.05 U of DNA polymerase β was used in place of the DNA polymerase α. The DNA polymerase β was prepared from recombinant E. coli introduced with rat DNA polymerase β gene. In this way, the inhibitory effect of test compounds (SRAG1, SRAG2 and SRAG3 shown in Table 1 and dissolved in DMSO) against DNA polymerase : was assayed.

`CCCCCCCCCCCCCC(=O)OCC(O)CO[C@H]1O[C@H](CS(=O)(=O)[O-])[C@@H](O)[C@H](O)[C@@H]1O.[Na+]` (stereo partly drawn) [SRAG1, 3-O-(6-deoxy-6-sulfo-α-D-mannopyranosyl)-1-O-myristoyl-glycerol sodium salt]: the concentration for half-maximal inhibition (IC50) in experiment [1] is 42.5 µg/mL; in experiment [2], 45 µg/mL; in experiment [3], 23.6 µM; in experiment [4], more than 90.8 µM. Besides, in experiment [4], the “inhibitory effect against the DNA polymerase β (in words)” value is on record as “did not show an inhibitory effect”.
As to `CCCCCCCCCCCCCCCC(=O)OCC(O)CO[C@H]1O[C@H](CS(=O)(=O)[O-])[C@@H](O)[C@H](O)[C@@H]1O.[Na+]` (stereo partly drawn) [SRAG2, 3-O-(6-deoxy-6-sulfo-α-D-mannopyranosyl)-1-O-palmitoyl-glycerol sodium salt], the IC50 in experiment [1] was 30 µg/mL; in experiment [2], 40 µg/mL; in experiment [3], 5.7 µM; in experiment [4] it was 28.7 µM. Moreover, the “inhibitory effect against the DNA polymerase β (in words)” value in experiment [4] is “significant inhibitory activity”.
The matching figures for `CCCCCCCCCCCCCCCCCC(=O)OCC(O)CO[C@H]1O[C@H](CS(=O)(=O)[O-])[C@@H](O)[C@H](O)[C@@H]1O.[Na+]` (stereo partly drawn) [SRAG3, 3-O-(6-deoxy-6-sulfo-α-D-mannopyranosyl)-1-O-stearoyl-glycerol sodium salt]: 14 µg/mL, 28.5 µg/mL, 3.3 µM, 11.1 µM and “significant inhibitory activity”.
In experiment [3], `CCCCCCCCCCCCCCCCCC(=O)OCC(CO[C@H]1O[C@H](CS(=O)(=O)O)[C@@H](O)[C@H](O)[C@@H]1O)OC(=O)CCCCCCCCCCCCCCCCC` (stereo partly drawn) [SRAG4, 3-O-(6-deoxy-6-sulfo-α-D-mannopyranosyl)-1,2-di-O-stearoyl-glycerol sodium salt] showed an IC50 of 0.115 µM.
